Data from PubChem BioAssay AID2060904 (Molecular Pharmacology Branch, DTP, NCI, 2025).

Test system: 349418-098-R-PDC complex spheroid viability
Assay: Anticancer human tumor 349418-098-R-PDC patient-derived lung adenocarcinoma cell line growth inhibition [RAS]
Settings: for IC50: curve of first compound; for viability, T/C: stronger effect = lower value
Summary of the method: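 Tumour cells grown as complex spheroids with HUVEC endothelial cells and mesenchymal stem cells, treated with RAS pathway inhibitor combinations. Each agent spans half-log steps from near clinical Cmax, or 10 microM where Cmax is unknown.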
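Also: spheroids exposed to compound for seven days before viability readout.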

CC(Nc1ccc2c(c1)OCCn1cc(N3C(=O)OCC3C(F)F)nc1-2)C(N)=O (centres undefined) + C=CC(=O)N1CCN(c2nc(OCC3CCCN3C)nc3c(F)c(-c4nc(N)cc(C)c4C(F)(F)F)c(Cl)cc23)C(C)C1
IC50 (second compound 0.00316 µM): 72.4 nM
IC50 (second compound 0.01 µM): 149 nM
IC50 (second compound 0.0316 µM): 195 nM
IC50 (second compound 0.1 µM): 114 nM
IC50 (second compound 0.316 µM): 57.8 nM
IC50 (second compound 1 µM): 129 nM
viability, T/C (second compound 0.00316 µM, first compound 0.0316 µM): 66%
viability, T/C (second compound 0.00316 µM, first compound 0.1 µM): 44.4%
viability, T/C (second compound 0.00316 µM, first compound 0.316 µM): 23.6%
viability, T/C (second compound 0.00316 µM, first compound 1 µM): 16.7%
viability, T/C (second compound 0.00316 µM, first compound 3.16 µM): 14.8%
viability, T/C (second compound 0.00316 µM, first compound 10 µM): 9.03%
viability, T/C (second compound 0.01 µM, first compound 0.0316 µM): 82%
viability, T/C (second compound 0.01 µM, first compound 0.1 µM): 57.6%
viability, T/C (second compound 0.01 µM, first compound 0.316 µM): 36.1%
viability, T/C (second compound 0.01 µM, first compound 1 µM): 17.8%
viability, T/C (second compound 0.01 µM, first compound 3.16 µM): 14.9%
viability, T/C (second compound 0.01 µM, first compound 10 µM): 8.95%
viability, T/C (second compound 0.0316 µM, first compound 0.0316 µM): 91%
viability, T/C (second compound 0.0316 µM, first compound 0.1 µM): 69.8%
viability, T/C (second compound 0.0316 µM, first compound 0.316 µM): 36%
viability, T/C (second compound 0.0316 µM, first compound 1 µM): 17.1%
viability, T/C (second compound 0.0316 µM, first compound 3.16 µM): 12.2%
viability, T/C (second compound 0.0316 µM, first compound 10 µM): 13%
viability, T/C (second compound 0.1 µM, first compound 0.0316 µM): 46.2%
viability, T/C (second compound 0.1 µM, first compound 0.1 µM): 58.9%
viability, T/C (second compound 0.1 µM, first compound 0.316 µM): 30%
viability, T/C (second compound 0.1 µM, first compound 1 µM): 19.3%
viability, T/C (second compound 0.1 µM, first compound 3.16 µM): 17.6%
viability, T/C (second compound 0.1 µM, first compound 10 µM): 11.4%
viability, T/C (second compound 0.316 µM, first compound 0.0316 µM): 55.8%
viability, T/C (second compound 0.316 µM, first compound 0.1 µM): 44.9%
viability, T/C (second compound 0.316 µM, first compound 0.316 µM): 30.3%
viability, T/C (second compound 0.316 µM, first compound 1 µM): 19.4%
viability, T/C (second compound 0.316 µM, first compound 3.16 µM): 14%
viability, T/C (second compound 0.316 µM, first compound 10 µM): 10.7%
viability, T/C (second compound 1 µM, first compound 0.0316 µM): 61.2%
viability, T/C (second compound 1 µM, first compound 0.1 µM): 57.3%
viability, T/C (second compound 1 µM, first compound 0.316 µM): 28.4%
viability, T/C (second compound 1 µM, first compound 1 µM): 24.4%
viability, T/C (second compound 1 µM, first compound 3.16 µM): 16.6%
viability, T/C (second compound 1 µM, first compound 10 µM): 11.3%

Cc1nc(N2CCC3(CC2)COC(C)C3N)c(CO)nc1Sc1ccnc(N)c1Cl (centres undefined) + CCn1c(-c2cc(N3CCN(C)CC3)cnc2C(C)OC)c2c3cc(ccc31)-c1csc(n1)CC(NC(=O)C1CC1C)C(=O)N1CCCC(N1)C(=O)OCC(C)(C)C2
IC50 (second compound 0.000949 µM): > 10000 nM
IC50 (second compound 0.003 µM): > 10000 nM
IC50 (second compound 0.00949 µM): > 10000 nM
IC50 (second compound 0.03 µM): > 10000 nM
IC50 (second compound 0.0949 µM): > 10000 nM
IC50 (second compound 0.3 µM): > 10000 nM
viability, T/C (second compound 0.000949 µM, first compound 0.0316 µM): 90.4%
viability, T/C (second compound 0.000949 µM, first compound 0.1 µM): 99.3%
viability, T/C (second compound 0.000949 µM, first compound 0.316 µM): 88.4%
viability, T/C (second compound 0.000949 µM, first compound 1 µM): 102%
viability, T/C (second compound 0.000949 µM, first compound 3.16 µM): 97.2%
viability, T/C (second compound 0.000949 µM, first compound 10 µM): 95.7%
viability, T/C (second compound 0.003 µM, first compound 0.0316 µM): 114%
viability, T/C (second compound 0.003 µM, first compound 0.1 µM): 103%
viability, T/C (second compound 0.003 µM, first compound 0.316 µM): 104%
viability, T/C (second compound 0.003 µM, first compound 1 µM): 103%
viability, T/C (second compound 0.003 µM, first compound 3.16 µM): 100%
viability, T/C (second compound 0.003 µM, first compound 10 µM): 95.8%
viability, T/C (second compound 0.00949 µM, first compound 0.0316 µM): 111%
viability, T/C (second compound 0.00949 µM, first compound 0.1 µM): 89.2%
viability, T/C (second compound 0.00949 µM, first compound 0.316 µM): 97.1%
viability, T/C (second compound 0.00949 µM, first compound 1 µM): 112%
viability, T/C (second compound 0.00949 µM, first compound 3.16 µM): 114%
viability, T/C (second compound 0.00949 µM, first compound 10 µM): 115%
viability, T/C (second compound 0.03 µM, first compound 0.0316 µM): 96%
viability, T/C (second compound 0.03 µM, first compound 0.1 µM): 106%
viability, T/C (second compound 0.03 µM, first compound 0.316 µM): 105%
viability, T/C (second compound 0.03 µM, first compound 1 µM): 99.1%
viability, T/C (second compound 0.03 µM, first compound 3.16 µM): 106%
viability, T/C (second compound 0.03 µM, first compound 10 µM): 90.6%
viability, T/C (second compound 0.0949 µM, first compound 0.0316 µM): 104%
viability, T/C (second compound 0.0949 µM, first compound 0.1 µM): 114%
viability, T/C (second compound 0.0949 µM, first compound 0.316 µM): 79%
viability, T/C (second compound 0.0949 µM, first compound 1 µM): 92%
viability, T/C (second compound 0.0949 µM, first compound 3.16 µM): 102%
viability, T/C (second compound 0.0949 µM, first compound 10 µM): 104%
viability, T/C (second compound 0.3 µM, first compound 0.0316 µM): 109%
viability, T/C (second compound 0.3 µM, first compound 0.1 µM): 106%
viability, T/C (second compound 0.3 µM, first compound 0.316 µM): 100%
viability, T/C (second compound 0.3 µM, first compound 1 µM): 107%
viability, T/C (second compound 0.3 µM, first compound 3.16 µM): 115%
viability, T/C (second compound 0.3 µM, first compound 10 µM): 115%
